Usually inhibition stands for the share of the control response that was lost under treatment.

From patent EP0545103A1, “Insecticidal, acaricidal and molluscicidal 1-(substituted) thioalkylpyrroles” (priority 1991, dated 1993) come the findings set out here.

For one experiment, the system named is Venturia inaequalis. Briefly: In vivo fungicidal activity, Apple Scab (AS). The settings on record: rate 400 ppm, host plants sprayed then inoculated, rating, averaged. On the procedure:
(§1) Test compounds are dissolved in acetone and diluted with deionized water containing about 0.05% TWEEN 20®, a polyoxyethylene sorbitan monolaurate surfactant manufactured by Atlas Chemical Industries, to give a concentration of 400 ppm. Subsequent dilutions are made with an 0.05% aqueous solution of TWEEN 20®.
(§2) Host plants are sprayed with test solution, dried and inoculated with fungi. When disease symptom development is optimal, the plants are rated for disease control according to the rating scale shown below. Each test contains inoculated treated plants, inoculated untreated plants and a reference standard.
(§3) When more than one test is run, the data are averaged.

The subject of the next experiment is Plasmopara viticola. In words: In vivo fungicidal activity, Grape Downy Mildew (GDM). Particulars: rate 400 ppm, rating, averaged. On the procedure: as §1, §2, §3
The next experiment has as its system Cercospora beticola. In words: In vivo fungicidal activity, Sugarbeet Cercospora (SBC). The settings on record: rate 400 ppm, rating, averaged. On the procedure:
as §1, §2, §3

For experiment [1], the system named is Puccinia recondita, tritici. In words: In vivo fungicidal activity, Wheat Leaf Rust (WLR). Particulars: rate 400 ppm, rating, averaged. On the procedure:
as §1, §2, §3

In experiment [2] the test system is Erysiphe graminis, tritici. Briefly: In vivo fungicidal activity, Wheat Powdery Mildew (WPM). Particulars: rating, averaged. On the procedure: as §1, §2, §3
Another experiment has as its system Pythium ultimum. In words: In vitro fungicidal activity, mycelial growth inhibition on agar (Pyth). The experiment is classed as cell-based. Particulars: Globisporangium ultimum, 48 h, two days. On the procedure:
(§4) Test compounds are dissolved in acetone, diluted with sterile, deionized water and mixed with a partially cooled, autoclaved, chemically defined agar medium. This mixture is poured into several 100mm x 15mm sterile plastic plates and allowed to solidify. The surface of each plate is inoculated with a single disc of mycelium and agar cut with an 8mm diameter cork borer from actively growing cultures of assay fungi on a chemically defined agar medium. The plates are incubated at room temperature. Growth inhibition is determined when the mycelial growth on unamended control media has reached the edge of the petri plates. The time interval varies depending on the growth rate of the fungus; two days for Pythium ultimum (pyth) and Rhizoctonia solani (Rhiz) , five days for Botrytis cinerea (Betry) and 7-10 days for Pseudocercosporella herpotrichoides (Pseudo). Each colony diameter is measured and compared with the untreated control and the percent inhibition is calculated as follows: [formula] Each test includes a solvent blank consisting of the formulation without a test compound in addition to the untreated control.
(§5) Assay fungi include the plant pathogens, Pythium ultimum (Pyth) and Rhizoctonia solani (Rhiz).
(§6) When more than one test is run the data are averaged.

In another experiment the test system is Rhizoctonia solani. Briefly: In vitro fungicidal activity, mycelial growth inhibition on agar (Rhiz). The experiment is classed as cell-based. Particulars: 48 h, two days. On the procedure: as §4, §5, §6
Experiment [3] concerns Spodoptera eridania, 3rd instar larvae, southern armyworm. In words: Southern armyworm 3rd instar test, dipped limabean leaf. The experiment is classed as in vivo. Particulars: 1000 ppm. An outline of the steps:
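Ten 3rd instar larvae fed on limabean leaves that had been dipped for 3 s in test solution and dried. Test solutions were diluted in water from a 10,000 ppm stock in 35% acetone/water. Ratings at days 3 and 5 covered death, feeding reduction and abnormal molting.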

Experiment [4] concerns Diabrotic undecimpunctata howardi, 3rd instar southern corn rootworm. In words: Southern corn rootworm soil test. The experiment is classed as in vivo. On the set-up: key: 0: no effect; 10-25% kill; 26-35% kill; 36-45% kill; 46-55% kill; 56-65% kill; 66-75% kill; 76-85% kill; 86-99% kill; 9: 100% kill. The settings on record: 50 (ppm as headed), mortality rating after 6 days. The procedure, abridged:
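Soil test with ten 3rd instar larvae per jar, mortality read after 6 days and missing larvae counted as dead; scores on a rating scale. Doses were 1.25 and 0.25 mg a.i. per jar, corresponding to roughly 50 and 10 kg/ha, loaded on talc from acetone and mixed into moist soil with millet seed as food.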

The subject of experiment [5] is Heliothis virescens, egg, tobacco budworm. In words: Tobacco budworm egg test, dipped cotton leaf and eggs. The experiment is classed as in vivo. The settings on record: 1000 ppm; mortality rating after 3 days. An outline of the steps:
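Scoring is by mortality counts after 3 days, graded on a rating scale. Tobacco budworm eggs (6-30 h old) on cheesecloth and a young cotton leaf were each dipped about 3 s in the test suspension. Suspensions were made from a 10,000 ppm stock in 35% acetone/water with further water dilutions.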

Experiment [6] concerns Heliothis virescens, 3rd instar tobacco budworm. Briefly: Tobacco budworm 3rd instar test, dipped cotton cotyledons. The settings on record: mortality rating after 3 days. The arrangement: key: 0: no effect; 10-25% kill; 26-35% kill; 36-45% kill; 46-55% kill; 56-65% kill; 66-75% kill; 76-85% kill; 86-99% kill; 9: 100% kill. The experiment is classed as in vivo. The procedure, abridged: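 Rating-scale scores of mortality and reduced feeding, taken 3 days after single third-instar larvae were caged on dried cotton cotyledon quarters. Cotyledons were pre-dipped in test solutions diluted with water from a 10,000 ppm stock in 35% acetone.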

Experiment [7] concerns Spodoptera eridania, 3rd instar larvae, southern armyworm. Briefly: Southern armyworm systemic uptake (stem systemic) test. The experiment is classed as in vivo. On the set-up: key: 0: no effect; 10-25% kill; 26-35% kill; 36-45% kill; 46-55% kill; 56-65% kill; 66-75% kill; 76-85% kill; 86-99% kill; 9: 100% kill. Particulars: cut stem in emulsion 3 days.
Experiment [8] deals with Tetranychus urticae (OP-resistant strain), 2-spotted spider mite. In words: 2-spotted spider mite test, dipped infested limabean plants. The experiment is classed as in vivo. The arrangement: key: 0: no effect; 10-25% kill; 26-35% kill; 36-45% kill; 46-55% kill; 56-65% kill; 66-75% kill; 76-85% kill; 86-99% kill; 9: 100% kill. Particulars: 300 ppm, rating scale 0-9. An outline of the steps:
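Compound dissolved at 10,000 ppm in 35% aqueous acetone, then water-diluted; limabean primary leaves carrying ~100 OP-resistant mites each are dipped 3 s and dried. Adult mortality read on one leaf after 2 days, eggs/newly emerged nymphs on another after 5 days, scored by rating scale.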

The subject of experiment [9] is Aphis fabae, mixed instar, bean aphid. Briefly: Bean aphid spray test on nasturtium. The experiment is classed as in vivo. Particulars: 100 ppm; rating scale 0-9. An outline of the steps: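 Mortality rated on a scale 2 days after treatment of aphid-infested (100-200 per plant, infested a day earlier) ~5 cm nasturtiums sprayed to complete coverage. Spray solutions: 10,000 ppm compound in 35% acetone in water, with further water dilutions.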

Experiment [10] deals with Empoasca abrupta, adult, western potato leafhopper. In words: Western potato leafhopper contact test, dipped limabean leaf. The experiment is classed as in vivo. The arrangement: key: 0: no effect; 10-25% kill; 26-35% kill; 36-45% kill; 46-55% kill; 56-65% kill; 66-75% kill; 76-85% kill; 86-99% kill; 9: 100% kill. The settings on record: 100 ppm; contact; rating scale 0-9. An outline of the steps:
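Sieva limabean leaf dipped 3 s in compound solution (diluted in water from 10,000 ppm stock in 35% acetone), dried, and infested with about 10 adult leafhoppers on moist filter paper. Mortality counted after 2 days and scored on a rating scale.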

For experiment [11] the test system is unchanged. In words: Western potato leafhopper systemic uptake test. The experiment is classed as in vivo. The arrangement: key: 0: no effect; 10-25% kill; 26-35% kill; 36-45% kill; 46-55% kill; 56-65% kill; 66-75% kill; 76-85% kill; 86-99% kill; 9: 100% kill. Particulars: 100 ppm; systemic uptake; rating scale 0-9. An outline of the steps: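 Leafhopper mortality, rated on a scale, scored 2 days after about 10 adults were confined with a leaf in a moist dish. The leaf came from a cut lima bean stem that had taken up the compound emulsion (100 ppm and 10-fold dilutions) over 3 days at 27 °C.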

Consider `N#CSCn1c(Br)c(Br)c(C#N)c1Br` [Example 38, 1-[(cyanothio)methyl]-2,4,5-tribromopyrrole-3-carbonitrile], for which the “Disease Control AS” value with Venturia inaequalis was 2.0. In the experiment with Plasmopara viticola, the “Disease Control GDM” value stood at 3.0. Also, the “Disease Control SBC” value in the experiment with Cercospora beticola is reported as 0 (0). In addition, the “Disease Control WLR” value in experiment [1] came out at 5.0. In addition, the “Disease Control WPM” value in experiment [2] (rate 400 ppm) is 0 (0). Further, the inhibition at 1 ppm in the experiment with Pythium ultimum (rate 1 ppm in agar) and with Rhizoctonia solani (rate 1 ppm in agar) was 1.5% each time. Further, the inhibition at 10 ppm was found to be 4% in the experiment on Pythium ultimum (rate 10 ppm in agar) and 3.5% in the experiment with Rhizoctonia solani (rate 10 ppm in agar). Further, the figures for the inhibition at 25 ppm with Pythium ultimum (rate 25 ppm in agar) and in the experiment on Rhizoctonia solani (rate 25 ppm in agar) were 4.5% and 5.8%, respectively. In experiment [3] (rating at 3 days), the “ARMYWORM Day 3” value is 9 (100% kill). Further, the “ARMYWORM Day 5” value in experiment [3] (rating at 5 days) was 9 (100% kill). In addition, in [4], the “SOUTHERN CORN ROOTWORM” value stood at 0.
In the case of `CC(C)OP(=S)(OC(C)C)SCn1c(Br)c(Br)c(C#N)c1Br` [O,O-diisopropyl S-(2,3,5-tribromo-4-cyanopyrrole-1-yl)methyl ester phosphorodithioic acid], the “Disease Control AS” value in the experiment on Venturia inaequalis is 0 (0). Moreover, the “Disease Control GDM” value in the experiment with Plasmopara viticola was 0 (0). The “Disease Control SBC” value with Cercospora beticola is 0 (0). The “Disease Control WLR” value in experiment [1] is 0 (0). Besides, the “Disease Control WPM” value is on record as 0 (0) in experiment [2] (rate 25 ppm), 4.0 in experiment [2] (rate 100 ppm) and 7.0 in experiment [2] (rate 400 ppm).
Turning to `CC(=O)SCn1c(Br)c(Br)c(C#N)c1Br` [Example 34], the “TOBACCO BUDWORM Egg” value in experiment [5] is on record as 8 (86-99% kill). In addition, the entries for the “TOBACCO BUDWORM 3rd Instar” value in [6] (100 ppm) and in experiment [6] (1000 ppm) were 0 and 9 (100% kill), respectively. For the same compound, the “ARMYWORM Stem Sys” value in [7] is 0. Besides, the “SOUTHERN CORN ROOTWORM” value in [4] was determined as 0. In [8] (adult mites), the “OP-RESISTANT MITES Adult” value was found to be 0. The “OP-RESISTANT MITES Egg” value in [8] (mite eggs) was found to be 0. In [8] (mite nymphs), the “OP-RESISTANT MITES Nymph” value was found to be 0. Besides, in [9], the APHIDS is 8 (86-99% kill). In [10], the “LEAFHOPPER Contact” value amounted to 0. For the same compound, the “LEAFHOPPER Systemic” value in experiment [11] is reported as 0.
